Each block holds one molecule with its values, some of them ahead of it.
Columns and labels:
[1] = target: T1, Ktr4p (Saccharomyces cerevisiae, UniProt P38131); assay: coupled phosphatase (ENTPD3/CD39L3) malachite green assay; format: biochemical; conditions: 10 μM enzyme, 10 mM MnCl2, 10 mM CaCl2, pH 7.5, 20°C
T1 construct: gene KTR4; lumenal domain (stalk plus catalytic), residues Asn-33 to Tyr-464; N-terminal His6 tag cut off with TEV protease; E. coli Rosetta-gami 2 (DE3); monomer fraction from SEC
T1 sequence (P38131 33-464): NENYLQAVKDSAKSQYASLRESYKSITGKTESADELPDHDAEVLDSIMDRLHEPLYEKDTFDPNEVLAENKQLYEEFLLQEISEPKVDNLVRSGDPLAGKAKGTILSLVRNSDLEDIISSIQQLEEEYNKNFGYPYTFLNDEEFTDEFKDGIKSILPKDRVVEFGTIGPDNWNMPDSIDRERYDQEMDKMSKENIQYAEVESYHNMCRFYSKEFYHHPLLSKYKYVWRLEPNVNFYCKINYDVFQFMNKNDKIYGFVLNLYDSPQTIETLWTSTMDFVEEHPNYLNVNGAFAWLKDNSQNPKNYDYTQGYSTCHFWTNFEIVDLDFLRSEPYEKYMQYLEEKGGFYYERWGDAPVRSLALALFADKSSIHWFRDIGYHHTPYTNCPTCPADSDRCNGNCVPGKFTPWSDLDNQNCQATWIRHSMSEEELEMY

[2] = target: T1, Ktr4p; assay: X-ray crystal structure, […] Å; format: binding; conditions: with Mn2+ in the active site; 5 mM GDP and 5 mM MnCl2; pH 6.5; 4°C
[3] = target: the molecule itself; assay: SEC; Superdex 200 16/60, 10 mM HEPES pH 7.4, 150 mM NaCl; final purification step; monomer and dimer peaks at a ratio of ~2:1, monomer peak the largest

Molecule: CO[C@H]1O[C@H](CO)[C@@H](O)[C@H](O)[C@@H]1O [methyl-α-mannoside]
coupled phosphatase (ENTPD3/CD39L3) malachite green assay ([1]; sugar acceptor, 500 μM, 50 μM GDP-mannose): we observe the most efficient activity with methyl-α-mannoside

coupled phosphatase (ENTPD3/CD39L3) malachite green assay ([1]; sugar donor, 50 μM, 500 μM acceptor): GDP-mannose is a suitable sugar donor
Molecule: Nc1nc2c(ncn2[C@@H]2O[C@H](COP(=O)(O)OP(=O)(O)O[C@H]3O[C@H](CO)[C@@H](O)[C@H](O)[C@@H]3O)[C@@H](O)[C@H]2O)c(=O)[nH]1 [GDP-mannose]

Molecule: Nc1nc2c(ncn2[C@@H]2O[C@H](COP(=O)(O)OP(=O)(O)O)[C@@H](O)[C@H]2O)c(=O)[nH]1 [GDP]
X-ray crystal structure, 1.9 Å [2]: 5a08 for the apo structure and 5a07 for the GDP-complex structure

B1: Ktr4p lumenal domain (residues Asn-33 to Tyr-464; stalk domain and catalytic domain) (domain or fragment, S. cerevisiae, UniProt P38131 33-464, looked up)
chain: T1 sequence (P38131 33-464)
notes: Cloned in pNIC28-Bsa4 with a His6 tag and a TEV site N-terminal of the construct; the tag was removed with TEV protease; A few residues of the vector probably remain at the N-terminus after cleavage (surmised from the forward primer); Residues 33-69/70 are not visible in the structures; source: E. coli Rosetta-gami 2 (DE3), purified (Ni-NTA IMAC, TEV cleavage, second IMAC pass, Superdex 200 SEC); …
stoichiometry N [3]: 2

Source: article PMC4546622, “Structure of the Glycosyltransferase Ktr4p from Saccharomyces cerevisiae” (PLoS ONE, 2015)
